Like-named read-outs stand apart in the source and are kept apart here.
Legend:
Listeria monocytogenes = conditions: for MIC (MEC): radial diffusion, MHB/1% agarose, overnight, 37°C
Protocol: (§1) The MEC of HBD-3 was assayed on a sub-selection of strains using a radial diffusion assay with some modifications. In brief, MHB/1% agarose was supplemented with glucose to an end-concentration of 0.1% (w/V) to enhance the growth of L. monocytogenes and improve the visualization of the inhibition zones. […] Following solidification on a leveling table, 1 mm wells were punched with a Pasteur pipette. Two-fold dilutions of HBD-3 were prepared in 0.01% acetic acid/0.1% bovine serum albumin to a concentration range of 0.25–256 μg/ml and 2 μl was added to each well. […] Each strain was tested in two independent trials.
(§2) The bacteria were prepared and mixed with MHB/1% agarose as described above and 50 ml gel was poured into 140 mm Petri dishes. The gel was allowed to solidify and 3 mm wells were punched. […] The plates were incubated overnight at 37°C and the MEC was read as described above.

Staphylococcus aureus = conditions: for MIC (MEC): radial diffusion, MHB/1% agarose, overnight, 37°C
Protocol: as §1, §2

OO [hydrogen peroxide]
MEC values against L. monocytogenes (range over strains) (Listeria monocytogenes; radial diffusion assay, all strains tested): 0.12–0.94 % (V/V)
MIC (MEC) (Listeria monocytogenes; strain 2275 (EGD dps del)): 0.94 % (V/V)
MIC (MEC) (Listeria monocytogenes; strain 2307 (EGD resD del)): 0.12 % (V/V)
MIC (MEC) (Listeria monocytogenes; strain 2315 (EGD sigB del)): 0.94 % (V/V)
MIC (MEC) (Listeria monocytogenes; strain 2317 (EGD prfA del)): 0.94 % (V/V)
MIC (MEC) (Listeria monocytogenes; strain 2374 (EGD perR ins)): 0.94 % (V/V)
MIC (MEC) (Listeria monocytogenes; strain 2375 (EGD perR del)): 0.94 % (V/V)
MIC (MEC) (Listeria monocytogenes; strain 4239): 0.23 % (V/V)
MIC (MEC) (Listeria monocytogenes; strain 4446): 0.47 % (V/V)
MIC (MEC) (Listeria monocytogenes; strain 4459): 0.23 % (V/V)
MIC (MEC) (Listeria monocytogenes; strain 4666): 0.18 % (V/V)
MIC (MEC) (Listeria monocytogenes; strain 6895): 0.35 % (V/V)
MIC (MEC) (Listeria monocytogenes; strain 7291): 0.47 % (V/V)
MIC (MEC) (Listeria monocytogenes; strain 7418): 0.18 % (V/V)
MIC (MEC) (Listeria monocytogenes; strain EGD (wildtype)): 0.47 % (V/V)
MIC (MEC) (Listeria monocytogenes; strain H13-1): 0.94 % (V/V)
MIC (MEC) (Listeria monocytogenes; strain LO28 (wildtype)): 0.47 % (V/V)
MIC (MEC) (Listeria monocytogenes; strain La22): 0.23 % (V/V)
MIC (MEC) (Listeria monocytogenes; strain La111): 0.94 % (V/V)
MIC (MEC) (Listeria monocytogenes; strain M103-1): 0.94 % (V/V)
MIC (MEC) (Listeria monocytogenes; strain N53-1): 0.47 % (V/V)
MIC (MEC) (Listeria monocytogenes; strain No40-1): 0.47 % (V/V)
MIC (MEC) (Listeria monocytogenes; strain O57): 0.47 % (V/V)
MIC (MEC) (Listeria monocytogenes; strain R479a): 0.47 % (V/V)
MIC (MEC) (Listeria monocytogenes; strain V518a): 0.94 % (V/V)
MEC values against S. aureus (range over strains) (Staphylococcus aureus): 0.12–0.47 % (V/V)
MIC (MEC) (Staphylococcus aureus; strain ΔdltA (Sa113 dltA ins)): 0.23 % (V/V)
MIC (MEC) (Staphylococcus aureus; strain ΔmprF (Sa113 mprF del)): 0.12 % (V/V)
